ChEMBL document CHEMBL1909046, “DrugMatrix in vitro pharmacology data”

Columns and labels:
Adenosine receptor A3 = molecular target: T1, Adenosine receptor A3 (Homo sapiens, UniProt P0DMS8); assay type: cell membranes, CHO-K1, Membrane; details: cho-k1;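 further: radioligand binding assay with AB-MECA serving as the labeled ligand; in other assays of this panel Not Active means under 50% inhibition at 10 µM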
T1 sequence (P0DMS8 whole entry): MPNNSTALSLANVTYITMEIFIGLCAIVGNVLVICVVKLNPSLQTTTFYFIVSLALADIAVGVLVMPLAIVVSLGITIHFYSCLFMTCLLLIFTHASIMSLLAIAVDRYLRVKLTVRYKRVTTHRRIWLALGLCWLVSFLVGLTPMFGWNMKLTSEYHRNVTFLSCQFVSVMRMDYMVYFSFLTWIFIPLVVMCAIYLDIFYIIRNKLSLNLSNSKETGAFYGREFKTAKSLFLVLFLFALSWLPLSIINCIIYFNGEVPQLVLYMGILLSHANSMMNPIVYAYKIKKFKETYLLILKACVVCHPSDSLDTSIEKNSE

Insulin receptor = Insulin receptor (Rattus norvegicus, UniProt P15127); assay type: cell membranes, Wistar, Liver, Membrane; further: in other assays of this panel Not Active means under 50% inhibition at 10 µM
Chain of Insulin receptor (P15127 27-759 limits assumed): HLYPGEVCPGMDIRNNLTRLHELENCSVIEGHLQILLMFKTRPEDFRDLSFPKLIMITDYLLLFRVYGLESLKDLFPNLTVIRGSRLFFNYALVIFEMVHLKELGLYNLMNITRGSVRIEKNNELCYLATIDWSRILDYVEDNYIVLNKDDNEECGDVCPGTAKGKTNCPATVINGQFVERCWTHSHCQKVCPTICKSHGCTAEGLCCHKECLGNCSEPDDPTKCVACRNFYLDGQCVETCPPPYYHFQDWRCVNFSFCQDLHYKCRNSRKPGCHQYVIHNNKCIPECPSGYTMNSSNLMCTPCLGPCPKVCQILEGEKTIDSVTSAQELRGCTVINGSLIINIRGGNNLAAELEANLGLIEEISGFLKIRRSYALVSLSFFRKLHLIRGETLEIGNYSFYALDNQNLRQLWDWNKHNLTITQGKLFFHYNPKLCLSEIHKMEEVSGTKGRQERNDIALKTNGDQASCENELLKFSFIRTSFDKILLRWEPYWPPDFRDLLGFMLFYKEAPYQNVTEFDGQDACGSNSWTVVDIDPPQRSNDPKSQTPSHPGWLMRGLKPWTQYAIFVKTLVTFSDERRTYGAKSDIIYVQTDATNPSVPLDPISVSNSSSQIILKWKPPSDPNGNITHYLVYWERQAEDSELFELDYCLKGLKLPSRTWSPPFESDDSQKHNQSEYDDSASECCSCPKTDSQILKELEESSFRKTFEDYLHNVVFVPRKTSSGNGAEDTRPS
Chain of Insulin receptor (P15127 764-1383 limits assumed): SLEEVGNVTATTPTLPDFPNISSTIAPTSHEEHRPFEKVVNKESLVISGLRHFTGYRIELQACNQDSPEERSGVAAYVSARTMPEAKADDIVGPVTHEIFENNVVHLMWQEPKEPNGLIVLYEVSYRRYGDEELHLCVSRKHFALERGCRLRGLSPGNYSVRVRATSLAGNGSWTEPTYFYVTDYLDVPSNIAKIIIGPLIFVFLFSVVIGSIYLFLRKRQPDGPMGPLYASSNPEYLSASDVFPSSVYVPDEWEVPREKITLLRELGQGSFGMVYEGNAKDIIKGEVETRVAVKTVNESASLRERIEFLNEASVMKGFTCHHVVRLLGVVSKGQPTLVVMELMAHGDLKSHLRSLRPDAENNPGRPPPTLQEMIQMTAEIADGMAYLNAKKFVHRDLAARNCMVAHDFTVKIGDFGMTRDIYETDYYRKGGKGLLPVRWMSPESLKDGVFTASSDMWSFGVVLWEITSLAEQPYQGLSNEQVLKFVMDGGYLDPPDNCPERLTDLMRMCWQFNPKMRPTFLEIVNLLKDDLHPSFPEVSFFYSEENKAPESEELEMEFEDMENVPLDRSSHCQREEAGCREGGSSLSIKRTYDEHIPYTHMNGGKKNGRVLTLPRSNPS

[1] = molecular target: T2, Muscarinic acetylcholine receptor M5 (Homo sapiens, UniProt P08912); assay type: cell membranes, CHO-K1, Membrane; details: cho-k1; further: in other assays of this panel Not Active means under 50% inhibition at 10 µM
T2 sequence (P08912 whole entry): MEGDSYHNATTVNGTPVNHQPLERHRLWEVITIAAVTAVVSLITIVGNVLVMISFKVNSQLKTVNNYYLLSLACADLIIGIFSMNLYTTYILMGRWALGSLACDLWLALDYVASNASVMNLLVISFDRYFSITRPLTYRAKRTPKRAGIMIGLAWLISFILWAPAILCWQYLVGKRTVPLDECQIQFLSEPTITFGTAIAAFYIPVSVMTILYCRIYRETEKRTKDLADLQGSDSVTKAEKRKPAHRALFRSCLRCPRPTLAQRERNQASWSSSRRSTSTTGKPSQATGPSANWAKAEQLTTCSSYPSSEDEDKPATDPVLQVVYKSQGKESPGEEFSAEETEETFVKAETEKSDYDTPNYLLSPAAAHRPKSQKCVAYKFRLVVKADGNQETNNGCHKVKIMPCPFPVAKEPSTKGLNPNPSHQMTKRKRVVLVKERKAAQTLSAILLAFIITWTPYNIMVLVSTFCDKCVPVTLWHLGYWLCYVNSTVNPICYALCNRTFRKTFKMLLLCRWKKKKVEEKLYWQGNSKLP

Adenosine receptor A1 = molecular target: T3, Adenosine receptor A1 (Homo sapiens, UniProt P30542); assay type: cell membranes, CHO, Membrane; details: cho;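 further: radioligand binding assay at the adenosine A1 receptor, with DPCPX serving as the labelled ligand; in other assays of this panel Not Active means under 50% inhibition at 10 µM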
T3 sequence (P30542 whole entry): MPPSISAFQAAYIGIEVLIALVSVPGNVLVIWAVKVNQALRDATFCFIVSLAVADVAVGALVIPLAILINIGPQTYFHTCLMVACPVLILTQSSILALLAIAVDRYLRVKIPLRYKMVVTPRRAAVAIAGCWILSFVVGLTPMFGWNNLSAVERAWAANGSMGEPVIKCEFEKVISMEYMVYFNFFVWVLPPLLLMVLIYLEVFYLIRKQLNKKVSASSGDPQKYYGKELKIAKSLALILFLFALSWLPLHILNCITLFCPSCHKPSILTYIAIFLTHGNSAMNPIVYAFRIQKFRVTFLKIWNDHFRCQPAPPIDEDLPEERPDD

[2] = DRUGMATRIX: Nicotinic Acetylcholine radioligand binding (ligand: [125I] Epibatidine); assay type: cell membranes, Membrane; details: imr-32; Not Active = under 50% inhibition at 10 µM

Molecule: C[C@@H]1O[C@@H](O[C@@H]2C=C3CC[C@@H]4[C@H](CC[C@]5(C)[C@@H](c6ccc(=O)oc6)CC[C@]45O)[C@@]3(C)CC2)[C@H](O)[C@H](O)[C@H]1O [PROSCILLARIDIN]
- IC50 (Adenosine receptor A3): Not Active
- IC50 (Insulin receptor): Not Active
- IC50 [1]: Not Active
- IC50 (Adenosine receptor A1): Not Active
- IC50 [2]: Not Active
- Ki [2]: Not Active

Molecule: Oc1cccc(O)c1O [PYROGALLOL]
- IC50 (Adenosine receptor A3): Not Active
- IC50 (Insulin receptor): Not Active
- IC50 [1]: Not Active
- IC50 (Adenosine receptor A1): Not Active
- IC50 [2]: Not Active
- Ki [2]: Not Active

Molecule: AURANOFIN
- IC50 (Adenosine receptor A3; read-out: IC50): 1690 nM
- Ki (Adenosine receptor A3; read-out: Ki): 954 nM
- IC50 (Insulin receptor): Not Active
- Ki (Insulin receptor): Not Active
- IC50 [1]: Not Active
- Ki [1]: Not Active
- IC50 (Adenosine receptor A1): Not Active
- Ki (Adenosine receptor A1): Not Active
- IC50 [2]: Not Active
- Ki [2]: Not Active

Molecule: GADOPENTETATE DIMEGLUMINE
- IC50 (Adenosine receptor A3): Not Active
- Ki (Adenosine receptor A3): Not Active
- IC50 (Insulin receptor): Not Active
- Ki (Insulin receptor): Not Active
- IC50 [1]: Not Active
- Ki [1]: Not Active
- IC50 (Adenosine receptor A1): Not Active
- Ki (Adenosine receptor A1): Not Active
- IC50 [2]: Not Active
- Ki [2]: Not Active

Molecule: GENTAMICIN
- IC50 (Adenosine receptor A3): Not Active
- Ki (Adenosine receptor A3): Not Active
- IC50 (Insulin receptor): Not Active
- Ki (Insulin receptor): Not Active
- IC50 [1]: Not Active
- Ki [1]: Not Active
- IC50 (Adenosine receptor A1): Not Active
- Ki (Adenosine receptor A1): Not Active
- IC50 [2]: Not Active
- Ki [2]: Not Active

Molecule: GRAMICIDIN
- IC50 (Adenosine receptor A3): Not Active
- Ki (Adenosine receptor A3): Not Active
- IC50 (Insulin receptor): Not Active
- Ki (Insulin receptor): Not Active
- IC50 [1]: Not Active
- Ki [1]: Not Active
- IC50 (Adenosine receptor A1): Not Active
- Ki (Adenosine receptor A1): Not Active
- IC50 [2]: Not Active
- Ki [2]: Not Active

Molecule: NYSTATIN
- IC50 (Adenosine receptor A3): Not Active
- Ki (Adenosine receptor A3): Not Active
- IC50 (Insulin receptor): Not Active
- Ki (Insulin receptor): Not Active
- IC50 [1]: Not Active
- Ki [1]: Not Active
- IC50 (Adenosine receptor A1): Not Active
- Ki (Adenosine receptor A1): Not Active
- IC50 [2]: Not Active
- Ki [2]: Not Active
